In the NIST ThermoML archive (doi:10.1021/acs.jced.5b00549):

Assay: mn = molality of the nth substance listed, in mol/kg
Conditions: 100 kPa, Liquid; for viscosity: Capillary tube (Ostwald / Ubbelohde) method; for speed of sound: Frequency=3 MHz, Sing-around technique in a fixed-path interferometer; for mass density: Vibrating tube method

N[C@@H](Cc1c[nH]cn1)C(=O)O [L-histidine] + O
Conditions | mass density [kg/m3] | speed of sound [m/s] | viscosity [mPa·s]
293.15 K, m1 = 0.02 | 999.369 | 1484.4 | 1.013
293.15 K, m1 = 0.04 | 1000.53 | 1486.2 | 1.019
293.15 K, m1 = 0.06 | 1001.7 | 1488 | 1.025
293.15 K, m1 = 0.08 | 1002.86 | 1489.7 | 1.03
293.15 K, m1 = 0.1 | 1004.03 | 1491.5 | 1.035
293.15 K, m1 = 0.12 | 1005.19 | 1493.2 | 1.04
293.15 K, m1 = 0.14 | 1006.36 | 1494.9 | 1.045
293.15 K, m1 = 0.16 | 1007.53 | 1496.6 | 1.049
293.15 K, m1 = 0.18 | 1008.71 | 1498.2 | 1.054
293.15 K, m1 = 0.2 | 1009.89 | 1499.9 | 1.058
298.15 K, m1 = 0.02 | 998.178 | 1498.5 | 0.8996
298.15 K, m1 = 0.04 | 999.317 | 1500.2 | 0.9048
298.15 K, m1 = 0.06 | 1000.46 | 1501.9 | 0.9091
298.15 K, m1 = 0.08 | 1001.59 | 1503.7 | 0.9138
298.15 K, m1 = 0.1 | 1002.73 | 1505.3 | 0.9175
298.15 K, m1 = 0.12 | 1003.87 | 1507 | 0.9222
298.15 K, m1 = 0.14 | 1005.02 | 1508.7 | 0.9259
298.15 K, m1 = 0.16 | 1006.16 | 1510.3 | 0.9293
298.15 K, m1 = 0.18 | 1007.32 | 1512 | 0.9336
298.15 K, m1 = 0.2 | 1008.47 | 1513.6 | 0.9374
303.15 K, m1 = 0.02 | 996.746 | 1510.7 | 0.8051
303.15 K, m1 = 0.04 | 997.854 | 1512.4 | 0.8093
303.15 K, m1 = 0.06 | 998.962 | 1514.1 | 0.813
303.15 K, m1 = 0.08 | 1000.07 | 1515.7 | 0.8165
303.15 K, m1 = 0.1 | 1001.18 | 1517.3 | 0.8198
303.15 K, m1 = 0.12 | 1002.29 | 1519 | 0.8233
303.15 K, m1 = 0.14 | 1003.39 | 1520.5 | 0.8265
303.15 K, m1 = 0.16 | 1004.5 | 1522.2 | 0.8301
303.15 K, m1 = 0.18 | 1005.61 | 1523.7 | 0.8339
303.15 K, m1 = 0.2 | 1006.72 | 1525.3 | 0.8372
308.15 K, m1 = 0.02 | 995.102 | 1521.3 | 0.7253
308.15 K, m1 = 0.04 | 996.183 | 1523 | 0.7289
308.15 K, m1 = 0.06 | 997.262 | 1524.6 | 0.732
308.15 K, m1 = 0.08 | 998.34 | 1526.2 | 0.7348
308.15 K, m1 = 0.1 | 999.416 | 1527.8 | 0.7378
308.15 K, m1 = 0.12 | 1000.49 | 1529.4 | 0.7407
308.15 K, m1 = 0.14 | 1001.57 | 1531 | 0.7435
308.15 K, m1 = 0.16 | 1002.64 | 1532.5 | 0.7466
308.15 K, m1 = 0.18 | 1003.72 | 1534.1 | 0.7492
308.15 K, m1 = 0.2 | 1004.78 | 1535.6 | 0.7524
313.15 K, m1 = 0.02 | 993.257 | 1530.4 | 0.6578
313.15 K, m1 = 0.04 | 994.314 | 1532 | 0.6608
313.15 K, m1 = 0.06 | 995.368 | 1533.5 | 0.6633
313.15 K, m1 = 0.08 | 996.42 | 1535.1 | 0.666
313.15 K, m1 = 0.1 | 997.47 | 1536.7 | 0.6682
313.15 K, m1 = 0.12 | 998.515 | 1538.2 | 0.6709
313.15 K, m1 = 0.14 | 999.558 | 1539.7 | 0.6734
313.15 K, m1 = 0.16 | 1000.6 | 1541.2 | 0.6756
313.15 K, m1 = 0.18 | 1001.63 | 1542.7 | 0.6783
313.15 K, m1 = 0.2 | 1002.67 | 1544.2 | 0.681

CN(C)C(=N)NC(=N)N.Cl [N,N-dimethylimidodicarbonimidic diamide hydrochloride] + O
Conditions | mass density, m1 = 0.01 [kg/m3] | mass density, m1 = 0.07 [kg/m3] | mass density, m1 = 0.13 [kg/m3] | speed of sound, m1 = 0.01 [m/s] | speed of sound, m1 = 0.07 [m/s] | speed of sound, m1 = 0.13 [m/s] | viscosity, m1 = 0.01 [mPa·s] | viscosity, m1 = 0.07 [mPa·s] | viscosity, m1 = 0.13 [mPa·s]
293.15 K | 998.57 | 1000.83 | 1003.13 | 1483.3 | 1490.2 | 1496.3 | 1.01 | 1.015 | 1.019
298.15 K | 997.402 | 999.633 | 1001.9 | 1497.3 | 1503.9 | 1509.7 | 0.8925 | 0.899 | 0.9052
303.15 K | 995.993 | 998.2 | 1000.45 | 1509.7 | 1515.8 | 1521.3 | 0.8013 | 0.8074 | 0.8126
308.15 K | 994.369 | 996.524 | 998.785 | 1520.3 | 1526 | 1531.3 | 0.7245 | 0.7285 | 0.7333
313.15 K | 992.542 | 994.71 | 996.926 | 1529.4 | 1534.8 | 1539.8 | 0.6566 | 0.6606 | 0.6662
